Results taken from the supplement of paper PMC9663587.

Tests used:
YKL-5-124 = compound: C=CC(=O)Nc1ccc(C(=O)Nc2[nH]nc3c2CN(C(=O)N[C@H](CN(C)C)c2ccccc2)C3(C)C)cc1 [YKL-5-124]; assay: increase in dead-cell fraction, 72 h; higher = more death;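 also: breast cancer cell lines in 384-well plates, stained with Hoechst plus LIVE/DEAD far red dye and imaged, cells above an LDR intensity threshold counted dead, Hoechst-negative corpses included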
BSJ-03-123 = compound: CC(=O)c1c(C)c2cnc(Nc3ccc(N4CCN(CCOCCOCCOCCNC(=O)COc5cccc6c5C(=O)N(C5CCC(=O)NC5=O)C6=O)CC4)cn3)nc2n(C2CCCC2)c1=O [BSJ-03-123]; assay: as above
[1] = compound: CC(=O)c1c(C)c2cnc(Nc3ccc(N4CCNCC4)cn3)nc2n(C2CCCC2)c1=O; assay: as above
[2] = compound: CCN1CCN(Cc2ccc(Nc3ncc(F)c(-c4cc(F)c5nc(C)n(C(C)C)c5c4)n3)nc2)CC1; assay: as above
Neratinib/HKI272 [3] = compound: T1, CCOc1cc2ncc(C#N)c(Nc3ccc(OCc4ccccn4)c(Cl)c3)c2cc1NC(=O)/C=C/CN(C)C [Neratinib/HKI272]; assay: as above
[4] = compound: CCc1cnn2c(NCc3ccc[n+]([O-])c3)cc(N3CCCC[C@H]3CCO)nc12; assay: as above
LEE011/Ribociclib = compound: CN(C)C(=O)c1cc2cnc(Nc3ccc(N4CCNCC4)cn3)nc2n1C1CCCC1 [LEE011/Ribociclib]; assay: as above
THZ531 = compound: CN(C)C/C=C/C(=O)Nc1ccc(C(=O)N2CCC[C@@H](Nc3ncc(Cl)c(-c4c[nH]c5ccccc45)n3)C2)cc1 [THZ531]; assay: as above
THZ1 [5] = compound: T2, CN(C)C/C=C/C(=O)Nc1ccc(C(=O)Nc2cccc(Nc3ncc(Cl)c(-c4c[nH]c5ccccc45)n3)c2)cc1 [THZ1]; assay: as above
Flavopiridol = compound: CN1CC[C@H](c2c(O)cc(O)c3c(=O)cc(-c4ccccc4Cl)oc23)[C@H](O)C1 [Flavopiridol]; assay: as above
Neratinib/HKI272 [6] = compound: T1, Neratinib/HKI272; assay: GR value, 72 h; higher = faster growth (1 = untreated, <0 = killing);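 also: breast cancer and non-malignant breast epithelial lines, nine half-log doses, viable cells counted by Hoechst and LIVE/DEAD dye imaging versus time-zero plates and DMSO controls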
THZ1 [7] = compound: T2, THZ1; assay: as above

With PDXHCI002 the “increase in dead-cell fraction” value (YKL-5-124; 0.001 µM) was 0.156, the “increase in dead-cell fraction” value (YKL-5-124; 0.003162 µM) was 0.144 and the “increase in dead-cell fraction” value (YKL-5-124; 0.01 µM) was 0.185. The “increase in dead-cell fraction” value (YKL-5-124; 0.03162 µM) was 0.172, the “increase in dead-cell fraction” value (YKL-5-124; 0.1 µM) was 0.186 and the “increase in dead-cell fraction” value (YKL-5-124; 0.3162 µM) was 0.234. The “increase in dead-cell fraction” value (YKL-5-124; 1 µM) was 0.186, the “increase in dead-cell fraction” value (YKL-5-124; 3.162 µM) was 0.255 and the “increase in dead-cell fraction” value (YKL-5-124; 10 µM) was 0.182. For the same cell line, the “increase in dead-cell fraction” value (BSJ-03-123; 0.001 µM) was -0.0304, the “increase in dead-cell fraction” value (BSJ-03-123; 0.003162 µM) was -0.0395 and the “increase in dead-cell fraction” value (BSJ-03-123; 0.01 µM) was -0.0247. For the same cell line, the “increase in dead-cell fraction” value (BSJ-03-123; 0.03162 µM) was 0.0116, the “increase in dead-cell fraction” value (BSJ-03-123; 0.1 µM) was 0.0131 and the “increase in dead-cell fraction” value (BSJ-03-123; 0.3162 µM) was 0.02. The “increase in dead-cell fraction” value (BSJ-03-123; 1 µM) was 0.121, the “increase in dead-cell fraction” value (BSJ-03-123; 3.162 µM) was 0.127 and the “increase in dead-cell fraction” value (BSJ-03-123; 10 µM) was 0.299. For the same cell line, the “increase in dead-cell fraction” value ([1]; 0.0003162 µM) was -0.0007, the “increase in dead-cell fraction” value ([1]; 0.001 µM) was 0.0001 and the “increase in dead-cell fraction” value ([1]; 0.003162 µM) was -0.0134. For the same cell line, the “increase in dead-cell fraction” value ([1]; 0.01 µM) was -0.0207, the “increase in dead-cell fraction” value ([1]; 0.03162 µM) was -0.015 and the “increase in dead-cell fraction” value ([1]; 0.1 µM) was -0.0124. For the same cell line, the “increase in dead-cell fraction” value ([1]; 0.3162 µM) was -0.0203, the “increase in dead-cell fraction” value ([1]; 1 µM) was -0.0173 and the “increase in dead-cell fraction” value ([1]; 3.162 µM) was -0.0092. For the same cell line, the “increase in dead-cell fraction” value ([2]; 0.001 µM) was -0.0112, the “increase in dead-cell fraction” value ([2]; 0.003162 µM) was -0.0293 and the “increase in dead-cell fraction” value ([2]; 0.01 µM) was -0.0317. The “increase in dead-cell fraction” value ([2]; 0.03162 µM) was -0.0292, the “increase in dead-cell fraction” value ([2]; 0.1 µM) was -0.0036 and the “increase in dead-cell fraction” value ([2]; 0.3162 µM) was 0.0233. For the same cell line, the “increase in dead-cell fraction” value ([2]; 1 µM) was 0.161, the “increase in dead-cell fraction” value ([2]; 3.162 µM) was 0.61 and the “increase in dead-cell fraction” value ([2]; 10 µM) was 0.778. The “increase in dead-cell fraction” value (Neratinib/HKI272 [3]; 0.0003162 µM) was 0.0061, the “increase in dead-cell fraction” value (Neratinib/HKI272 [3]; 0.001 µM) was -0.001 and the “increase in dead-cell fraction” value (Neratinib/HKI272 [3]; 0.003162 µM) was -0.0049. For the same cell line, the “increase in dead-cell fraction” value (Neratinib/HKI272 [3]; 0.01 µM) was -0.0162, the “increase in dead-cell fraction” value (Neratinib/HKI272 [3]; 0.03162 µM) was 0.0001 and the “increase in dead-cell fraction” value (Neratinib/HKI272 [3]; 0.1 µM) was -0.0122. The “increase in dead-cell fraction” value (Neratinib/HKI272 [3]; 0.3162 µM) was 0.0151, the “increase in dead-cell fraction” value (Neratinib/HKI272 [3]; 1 µM) was 0.0548 and the “increase in dead-cell fraction” value (Neratinib/HKI272 [3]; 3.162 µM) was 0.31. The “increase in dead-cell fraction” value ([4]; 0.0001 µM) was -0.0076, the “increase in dead-cell fraction” value ([4]; 0.0003162 µM) was -0.0064 and the “increase in dead-cell fraction” value ([4]; 0.001 µM) was -0.0055. For the same cell line, the “increase in dead-cell fraction” value ([4]; 0.003162 µM) was -0.0087, the “increase in dead-cell fraction” value ([4]; 0.01 µM) was -0.0047 and the “increase in dead-cell fraction” value ([4]; 0.03162 µM) was 0.451. The “increase in dead-cell fraction” value ([4]; 0.1 µM) was 0.504, the “increase in dead-cell fraction” value ([4]; 0.3162 µM) was 0.458 and the “increase in dead-cell fraction” value ([4]; 1 µM) was 0.44. For the same cell line, the “increase in dead-cell fraction” value (LEE011/Ribociclib; 0.001 µM) was -0.0323, the “increase in dead-cell fraction” value (LEE011/Ribociclib; 0.003162 µM) was -0.0237 and the “increase in dead-cell fraction” value (LEE011/Ribociclib; 0.01 µM) was -0.0167. For the same cell line, the “increase in dead-cell fraction” value (LEE011/Ribociclib; 0.03162 µM) was -0.0095, the “increase in dead-cell fraction” value (LEE011/Ribociclib; 0.1 µM) was -0.0015 and the “increase in dead-cell fraction” value (LEE011/Ribociclib; 0.3162 µM) was -0.0029. For the same cell line, the “increase in dead-cell fraction” value (LEE011/Ribociclib; 1 µM) was -0.0185, the “increase in dead-cell fraction” value (LEE011/Ribociclib; 3.162 µM) was 0.0196 and the “increase in dead-cell fraction” value (LEE011/Ribociclib; 10 µM) was 0.0853. The “increase in dead-cell fraction” value (THZ531; 0.0001 µM) was -0.0252, the “increase in dead-cell fraction” value (THZ531; 0.0003162 µM) was -0.029 and the “increase in dead-cell fraction” value (THZ531; 0.001 µM) was -0.0123. For the same cell line, the “increase in dead-cell fraction” value (THZ531; 0.003162 µM) was 0.0054, the “increase in dead-cell fraction” value (THZ531; 0.01 µM) was 0.0146 and the “increase in dead-cell fraction” value (THZ531; 0.03162 µM) was 0.0278. For the same cell line, the “increase in dead-cell fraction” value (THZ531; 0.1 µM) was 0.241, the “increase in dead-cell fraction” value (THZ531; 0.3162 µM) was 0.379 and the “increase in dead-cell fraction” value (THZ531; 1 µM) was 0.263. The “increase in dead-cell fraction” value (THZ1 [5]; 0.0001 µM) was -0.0106, the “increase in dead-cell fraction” value (THZ1 [5]; 0.0003162 µM) was -0.015 and the “increase in dead-cell fraction” value (THZ1 [5]; 0.001 µM) was -0.01. The “increase in dead-cell fraction” value (THZ1 [5]; 0.003162 µM) was -0.0152, the “increase in dead-cell fraction” value (THZ1 [5]; 0.01 µM) was 0.0629 and the “increase in dead-cell fraction” value (THZ1 [5]; 0.03162 µM) was 0.221. The “increase in dead-cell fraction” value (THZ1 [5]; 0.1 µM) was 0.272, the “increase in dead-cell fraction” value (THZ1 [5]; 0.3162 µM) was 0.269 and the “increase in dead-cell fraction” value (THZ1 [5]; 1 µM) was 0.282. For the same cell line, the “increase in dead-cell fraction” value (Flavopiridol; 0.0001 µM) was -0.0222, the “increase in dead-cell fraction” value (Flavopiridol; 0.0003162 µM) was 0.0027 and the “increase in dead-cell fraction” value (Flavopiridol; 0.001 µM) was -0.0057. For the same cell line, the “increase in dead-cell fraction” value (Flavopiridol; 0.003162 µM) was 0.0089, the “increase in dead-cell fraction” value (Flavopiridol; 0.01 µM) was 0.0079 and the “increase in dead-cell fraction” value (Flavopiridol; 0.03162 µM) was 0. The “increase in dead-cell fraction” value (Flavopiridol; 0.1 µM) was 0.0552, the “increase in dead-cell fraction” value (Flavopiridol; 0.3162 µM) was 0.306 and the “increase in dead-cell fraction” value (Flavopiridol; 1 µM) was 0.294. It also gave a GR value (Neratinib/HKI272 [6]; 0.0003162 µM) of 1.05 GR, a GR value (Neratinib/HKI272 [6]; 0.001 µM) of 1 GR and a GR value (Neratinib/HKI272 [6]; 0.003162 µM) of 1.02 GR. The GR value (Neratinib/HKI272 [6]; 0.01 µM) was 0.829 GR, the GR value (Neratinib/HKI272 [6]; 0.03162 µM) was 0.637 GR and the GR value (Neratinib/HKI272 [6]; 0.1 µM) was 0.54 GR. For the same cell line, the GR value (Neratinib/HKI272 [6]; 0.3162 µM) was 0.378 GR, the GR value (Neratinib/HKI272 [6]; 1 µM) was 0.19 GR and the GR value (Neratinib/HKI272 [6]; 3.162 µM) was -0.143 GR. For the same cell line, the GR value (THZ1 [7]; 0.0001 µM) was 1.05 GR, the GR value (THZ1 [7]; 0.0003162 µM) was 1.01 GR and the GR value (THZ1 [7]; 0.001 µM) was 1.02 GR. The GR value (THZ1 [7]; 0.003162 µM) was 0.984 GR, the GR value (THZ1 [7]; 0.01 µM) was 0.541 GR and the GR value (THZ1 [7]; 0.03162 µM) was -0.0195 GR. For the same cell line, the GR value (THZ1 [7]; 0.1 µM) was -0.163 GR, the GR value (THZ1 [7]; 0.3162 µM) was -0.148 GR and the GR value (THZ1 [7]; 1 µM) was -0.193 GR.
